Laboratory results reported in the supplement of paper PMC10307832.

Experiments:
Assay in all cases: relative viability (nuclei count vs DMSO), 5 days (fraction); higher = more cells survive
DM3189 + Luminespib = compound: C1CN(CCN1)C2=CC=C(C=C2)C3=CN4C(=C(C=N4)C5=CC=NC6=CC=CC=C56)N=C3 [DM3189] + CCNC(=O)c1noc(-c2cc(C(C)C)c(O)cc2O)c1-c1ccc(CN2CCOCC2)cc1 [Luminespib] (partner 0.01 µM)
Summary of the method: (§1)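 After 5 days of treatment, lung cancer cells in 1536-well plates were fixed and stained in a single step (final 0.05% Triton X-100, 1% formaldehyde, 1 ug/ml Hoechst) and their nuclei counted on 4× images. Treatment had been applied by pin tool the day after seeding as one drug alone or as a fixed anchor-drug dose with five library-drug doses (not always all listed) in √10 steps. Relative viability is the nuclei count of treated wells divided by that of vehicle wells, and values are medians of duplicate plates.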

DM3189 + Crizotinib = compound: C1CN(CCN1)C2=CC=C(C=C2)C3=CN4C(=C(C=N4)C5=CC=NC6=CC=CC=C56)N=C3 [DM3189] + C[C@@H](Oc1cc(-c2cnn(C3CCNCC3)c2)cnc1N)c1c(Cl)ccc(F)c1Cl [Crizotinib] (partner 1 µM)
Summary of the method: as §1

DM3189 + Pictilisib = compound: C1CN(CCN1)C2=CC=C(C=C2)C3=CN4C(=C(C=N4)C5=CC=NC6=CC=CC=C56)N=C3 [DM3189] + CS(=O)(=O)N1CCN(Cc2cc3nc(-c4cccc5[nH]ncc45)nc(N4CCOCC4)c3s2)CC1 [Pictilisib] (partner 1 µM)
Summary of the method: as §1

DM3189 + Phenformin = compound: C1CN(CCN1)C2=CC=C(C=C2)C3=CN4C(=C(C=N4)C5=CC=NC6=CC=CC=C56)N=C3 [DM3189] + N=C(N)NC(=N)NCCc1ccccc1 [Phenformin] (partner 250 µM)
Summary of the method: as §1

DM3189 + Linsitinib = compound: C1CN(CCN1)C2=CC=C(C=C2)C3=CN4C(=C(C=N4)C5=CC=NC6=CC=CC=C56)N=C3 [DM3189] + C[C@]1(O)C[C@@H](c2nc(-c3ccc4ccc(-c5ccccc5)nc4c3)c3c(N)nccn32)C1 [Linsitinib] (partner 1 µM)
Summary of the method: as §1

Row | Cell Line | relative viability (DM3189 + Luminespib; first compound 0.08 µM) | relative viability (DM3189 + Luminespib; first compound 0.253 µM) | relative viability (DM3189 + Luminespib; first compound 0.8 µM) | relative viability (DM3189 + Luminespib; first compound 2.53 µM) | relative viability (DM3189 + Crizotinib; first compound 0.08 µM) | relative viability (DM3189 + Crizotinib; first compound 0.253 µM) | relative viability (DM3189 + Crizotinib; first compound 0.8 µM) | relative viability (DM3189 + Crizotinib; first compound 2.53 µM) | relative viability (DM3189 + Pictilisib; first compound 0.08 µM) | relative viability (DM3189 + Pictilisib; first compound 0.253 µM) | relative viability (DM3189 + Pictilisib; first compound 0.8 µM) | relative viability (DM3189 + Pictilisib; first compound 2.53 µM) | relative viability (DM3189 + Phenformin; first compound 0.08 µM) | relative viability (DM3189 + Phenformin; first compound 0.253 µM) | relative viability (DM3189 + Phenformin; first compound 0.8 µM) | relative viability (DM3189 + Phenformin; first compound 2.53 µM) | relative viability (DM3189 + Linsitinib; first compound 0.08 µM) | relative viability (DM3189 + Linsitinib; first compound 0.253 µM) | relative viability (DM3189 + Linsitinib; first compound 0.8 µM) | relative viability (DM3189 + Linsitinib; first compound 2.53 µM)
1 | SK-LU-1 | 0.181 | 0.194 | 0.176 | 0.196 | 0.714 | 0.868 | 0.676 | 0.522 | 0.531 | 0.4 | 0.393 | 0.393 | 0.479 | 0.383 | 0.33 | 0.314 | 0.888 | 0.688 | 0.667 | 0.524
2 | NCI-H1792 | 0.416 | 0.552 | 0.445 | 0.328 | 0.861 | 0.992 | 0.887 | 0.441 | 0.228 | 0.248 | 0.165 | 0.271 | 0.275 | 0.267 |  | 0.458 | 0.409 | 0.532 | 0.449 | 0.315
3 | HCC-44 | 1.06 | 0.879 | 0.856 | 0.97 | 0.859 | 0.818 | 0.625 | 0.893 | 0.815 | 0.615 | 0.472 | 0.752 | 0.218 | 0.155 | 0.178 | 0.153 | 0.711 | 0.724 | 0.56 | 0.733
4 | EPLC-272H | 0.738 | 0.317 | 0.25 | 0.281 | 0.97 | 0.96 | 0.941 | 0.821 | 0.322 | 0.347 | 0.276 | 0.27 | 0.284 | 0.293 | 0.25 | 0.276 | 1.24 | 1.3 | 1.16 | 1.29
5 | NCI-H358 | 0.463 | 0.218 | 0.251 | 0.257 | 0.516 | 0.56 | 0.504 | 0.509 | 0.374 | 0.294 | 0.327 | 0.322 | 0.453 | 0.311 | 0.323 | 0.269 | 0.766 | 0.646 | 0.71 | 0.584
6 | NCI-H647 | 0.122 | 0.146 | 0.115 | 0.136 | 1.12 | 0.877 | 0.883 | 0.307 | 0.381 | 0.334 |  | 0.381 | 0.664 | 0.4 | 0.546 | 0.228 | 0.966 | 0.946 | 1 | 1.17
7 | NCI-H441 | 0.288 | 0.363 | 0.314 | 0.264 | 0.951 | 0.751 | 0.737 | 0.924 | 0.51 | 0.563 | 0.42 | 0.409 | 0.825 | 0.959 | 0.794 | 0.738 | 0.587 | 0.511 | 0.518 | 0.548
8 | NCI-H1563 | 0.568 | 0.487 | 0.481 | 0.539 | 0.944 | 0.865 | 0.833 | 0.899 | 0.635 | 0.622 | 0.625 | 0.616 | 0.722 | 0.602 | 0.593 | 0.631 | 1.2 | 1.22 | 1.13 | 1.25
